Converted amounts (≈) assume the structure as drawn.
Legend:
Klebsiella pneumoniae [1] = assay: Antibacterial activity against Klebsiella pneumoniae IHMA 1387833 assessed as bacterial growth inhibition; type: functional
Pseudomonas aeruginosa [2] = assay: Antibacterial activity against Pseudomonas aeruginosa ATCC 27853 assessed as bacterial growth inhibition; type: functional
Acinetobacter baumannii [3] = assay: Antibacterial activity against Acinetobacter baumannii ATCC 19606 assessed as bacterial growth inhibition; type: functional; conditions: ATCC 19606 = CIP 70.34 = JCM 6841
Klebsiella pneumoniae [4] = assay: Antibacterial activity against Klebsiella pneumoniae ATCC 700721 assessed as bacterial growth inhibition; type: functional
HepG2 = assay: Cytotoxicity against human HepG2 cells; type: functional
Klebsiella pneumoniae [5] = assay: Antibacterial activity against Klebsiella pneumoniae ATCC 10031 assessed as bacterial growth inhibition; type: functional
Pseudomonas aeruginosa [6] = assay: Antibacterial activity against Pseudomonas aeruginosa IHMA 1375891 assessed as bacterial growth inhibition; type: functional
Acinetobacter baumannii [7] = assay: Antibacterial activity against Acinetobacter baumannii IHMA 1312713 assessed as bacterial growth inhibition; type: functional
[8] = Cytotoxicity against HEK293 cells; type: cell-based; conditions: human, HEK293 cells
Klebsiella pneumoniae [9] = assay: Antibacterial activity against Klebsiella pneumoniae JCM 1662 assessed as bacterial growth inhibition; type: functional
Pseudomonas aeruginosa [10] = assay: Antibacterial activity against Pseudomonas aeruginosa ATCC 15692 assessed as bacterial growth inhibition; type: functional
Escherichia coli = assay: Antibacterial activity against Escherichia coli ATCC 47076 assessed as bacterial growth inhibition; type: functional

Row | Molecule | MIC (Klebsiella pneumoniae [1]) | MIC (Pseudomonas aeruginosa [2]) | MIC (Acinetobacter baumannii [3]) | MIC (Klebsiella pneumoniae [4]) | CC50 (HepG2) | MIC (Klebsiella pneumoniae [5]) | MIC (Pseudomonas aeruginosa [6]) | MIC (Acinetobacter baumannii [7]) | CC50 [8] | MIC (Klebsiella pneumoniae [9]) | MIC (Pseudomonas aeruginosa [10]) | MIC (Escherichia coli)
1 | C/C=C1\NC(=O)C(NC(=O)C2CCCN(C(=O)c3ccc(Cl)c(Cl)c3)C2)C(O)CNC(=O)C(C(O)CN)NC(=O)C(C(O)CN)NC(=O)[C@H](CCCNC(=N)N)NC(=O)[C@H](CC(C)C)NC(=O)[C@H](CCN)NC1=O (stereo partly specified) | > 256 mg/L | 32 mg/L (≈ 29.5 µM) | > 256 mg/L | > 256 mg/L | > 64 µM | > 256 mg/L | > 256 mg/L | > 256 mg/L | > 64 µM | > 256 mg/L | > 256 mg/L | 8 mg/L (≈ 7.37 µM)
2 | C/C=C1\NC(=O)C(NC(=O)Cc2c(C)n(C(=O)c3ccc(Cl)cc3)c3ccc(OC)cc23)C(O)CNC(=O)C(C(O)CN)NC(=O)C(C(O)CN)NC(=O)[C@H](CCCNC(=N)N)NC(=O)[C@H](CC(C)C)NC(=O)[C@H](CCN)NC1=O (stereo partly specified) | > 256 mg/L | 8 mg/L (≈ 7.01 µM) | 32 mg/L (≈ 28.1 µM) | > 256 mg/L | > 64 µM | 4 mg/L (≈ 3.51 µM) | 64 mg/L (≈ 56.1 µM) | > 256 mg/L | > 64 µM | > 256 mg/L | 32 mg/L (≈ 28.1 µM) | 2 mg/L (≈ 1.75 µM)
3 | C/C=C1\NC(=O)C(NC(=O)C2CC3(CCN(C(=O)OC(C)(C)C)CC3)c3ccccc32)C(O)CNC(=O)C(C(O)CN)NC(=O)C(C(O)CN)NC(=O)[C@H](CCCNC(=N)N)NC(=O)[C@H](CC(C)C)NC(=O)[C@H](CCN)NC1=O (stereo partly specified) | > 256 mg/L | 16 mg/L (≈ 14.4 µM) | 256 mg/L (≈ 230 µM) | > 256 mg/L | > 64 µM | 4 mg/L (≈ 3.59 µM) | > 256 mg/L | > 256 mg/L | > 64 µM | > 256 mg/L | > 256 mg/L | 4 mg/L (≈ 3.59 µM)
4 | C/C=C1\NC(=O)C(NC(=O)[C@H]2CC[C@H](CNC(=O)OCc3ccccc3)CC2)C(O)CNC(=O)C(C(O)CN)NC(=O)C(C(O)CN)NC(=O)[C@H](CCCNC(=N)N)NC(=O)[C@H](CC(C)C)NC(=O)[C@H](CCN)NC1=O (stereo partly specified) | > 256 mg/L | 8 mg/L (≈ 7.45 µM) | 256 mg/L (≈ 238 µM) | > 256 mg/L | > 64 µM | 32 mg/L (≈ 29.8 µM) | > 256 mg/L | > 256 mg/L | > 64 µM | > 256 mg/L | > 256 mg/L | 8 mg/L (≈ 7.45 µM)
5 | C/C=C1\NC(=O)C(NC(=O)CCc2nnc(-c3ccc(OC)cc3)[nH]2)C(O)CNC(=O)C(C(O)CN)NC(=O)C(C(O)CN)NC(=O)[C@H](CCCNC(=N)N)NC(=O)[C@H](CC(C)C)NC(=O)[C@H](CCN)NC1=O (stereo partly specified) | > 256 mg/L | 8 mg/L (≈ 7.77 µM) | > 256 mg/L | 16 mg/L (≈ 15.5 µM) | > 64 µM | 8 mg/L (≈ 7.77 µM) | > 256 mg/L | > 256 mg/L | > 64 µM | > 256 mg/L | > 256 mg/L | 2 mg/L (≈ 1.94 µM)
6 | C/C=C1\NC(=O)C(NC(=O)c2cn(-c3ccccc3)nc2-c2ccc(Cl)cc2)C(O)CNC(=O)C(C(O)CN)NC(=O)C(C(O)CN)NC(=O)[C@H](CCCNC(=N)N)NC(=O)[C@H](CC(C)C)NC(=O)[C@H](CCN)NC1=O (stereo partly specified) | > 256 mg/L | 8 mg/L (≈ 7.4 µM) | 8 mg/L (≈ 7.4 µM) | > 256 mg/L | > 64 µM | 4 mg/L (≈ 3.7 µM) | 128 mg/L (≈ 118 µM) | 64 mg/L (≈ 59.2 µM) | > 64 µM | > 256 mg/L | 128 mg/L (≈ 118 µM) | 4 mg/L (≈ 3.7 µM)
7 | COLISTIN | 32 mg/L | 2 mg/L | 2 mg/L | 1 mg/L | > 64 µM | 1 mg/L | 64 mg/L | 8 mg/L | – | 4 mg/L | 2 mg/L | 1 mg/L
8 | C/C=C1\NC(=O)C(NC(=O)c2ccc(-c3cc(-c4ccc(OCCCCC)cc4)on3)cc2)C(O)CNC(=O)C(C(O)CN)NC(=O)C(C(O)CN)NC(=O)[C@H](CCCNC(=N)N)NC(=O)[C@H](CC(C)C)NC(=O)[C@H](CCN)NC1=O (stereo partly specified) | 256 mg/L (≈ 226 µM) | 16 mg/L (≈ 14.1 µM) | 16 mg/L (≈ 14.1 µM) | 128 mg/L (≈ 113 µM) | 35 µM | 8 mg/L (≈ 7.05 µM) | 128 mg/L (≈ 113 µM) | 32 mg/L (≈ 28.2 µM) | – | 256 mg/L (≈ 226 µM) | 64 mg/L (≈ 56.4 µM) | 8 mg/L (≈ 7.05 µM)
9 | C/C=C1\NC(=O)C(NC(=O)c2cn3c4c(c(N5CCN(C)CC5)c(F)cc4c2=O)OC[C@@H]3C)C(O)CNC(=O)C(C(O)CN)NC(=O)C(C(O)CN)NC(=O)[C@H](CCCNC(=N)N)NC(=O)[C@H](CC(C)C)NC(=O)[C@H](CCN)NC1=O (stereo partly specified) | > 256 mg/L | 32 mg/L (≈ 28 µM) | > 128 mg/L | > 256 mg/L | > 64 µM | 64 mg/L (≈ 55.9 µM) | > 128 mg/L | > 128 mg/L | > 64 µM | > 128 mg/L | > 128 mg/L | 128 mg/L (≈ 112 µM)
10 | C/C=C1\NC(=O)C(NC(=O)Cc2ccc(NC(=O)Nc3c(C)cccc3C)c(Cl)c2)C(O)CNC(=O)C(C(O)CN)NC(=O)C(C(O)CN)NC(=O)[C@H](CCCNC(=N)N)NC(=O)[C@H](CC(C)C)NC(=O)[C@H](CCN)NC1=O (stereo partly specified) | > 256 mg/L | 128 mg/L (≈ 115 µM) | > 256 mg/L | > 256 mg/L | > 64 µM | 128 mg/L (≈ 115 µM) | > 256 mg/L | > 256 mg/L | > 64 µM | > 256 mg/L | > 256 mg/L | 4 mg/L (≈ 3.59 µM)
11 | C/C=C1\NC(=O)C(NC(=O)c2ccc(NS(=O)(=O)Cc3ccccc3)cc2)C(O)CNC(=O)C(C(O)CN)NC(=O)C(C(O)CN)NC(=O)[C@H](CCCNC(=N)N)NC(=O)[C@H](CC(C)C)NC(=O)[C@H](CCN)NC1=O (stereo partly specified) | > 256 mg/L | 256 mg/L (≈ 238 µM) | > 256 mg/L | > 256 mg/L | > 64 µM | 128 mg/L (≈ 119 µM) | > 256 mg/L | > 256 mg/L | > 64 µM | > 256 mg/L | > 256 mg/L | 16 mg/L (≈ 14.9 µM)
12 | C/C=C1\NC(=O)C(NC(=O)c2ccc(-c3nnn(CC(=O)N(C)C)n3)cc2)C(O)CNC(=O)C(C(O)CN)NC(=O)C(C(O)CN)NC(=O)[C@H](CCCNC(=N)N)NC(=O)[C@H](CC(C)C)NC(=O)[C@H](CCN)NC1=O (stereo partly specified) | > 256 mg/L | 128 mg/L (≈ 121 µM) | > 256 mg/L | > 256 mg/L | > 64 µM | 256 mg/L (≈ 242 µM) | > 256 mg/L | > 256 mg/L | > 64 µM | > 256 mg/L | > 256 mg/L | 16 mg/L (≈ 15.1 µM)
13 | C/C=C1\NC(=O)C(NC(=O)c2cn3c4c(c(F)c(F)cc4c2=O)OC[C@@H]3C)C(O)CNC(=O)C(C(O)CN)NC(=O)C(C(O)CN)NC(=O)[C@H](CCCNC(=N)N)NC(=O)[C@H](CC(C)C)NC(=O)[C@H](CCN)NC1=O (stereo partly specified) | > 64 mg/L | 16 mg/L (≈ 15 µM) | > 64 mg/L | 64 mg/L (≈ 60.1 µM) | > 64 µM | > 64 mg/L | > 64 mg/L | > 64 mg/L | > 64 µM | > 64 mg/L | > 64 mg/L | 32 mg/L (≈ 30.1 µM)
14 | C/C=C1\NC(=O)C(NC(=O)CCc2nc(-c3ccncc3)no2)C(O)CNC(=O)C(C(O)CN)NC(=O)C(C(O)CN)NC(=O)[C@H](CCCNC(=N)N)NC(=O)[C@H](CC(C)C)NC(=O)[C@H](CCN)NC1=O (stereo partly specified) | > 256 mg/L | > 256 mg/L | 256 mg/L (≈ 255 µM) | 32 mg/L (≈ 31.9 µM) | > 64 µM | 8 mg/L (≈ 7.98 µM) | > 256 mg/L | > 256 mg/L | > 64 µM | > 256 mg/L | > 256 mg/L | 2 mg/L (≈ 2 µM)

From ChEMBL document CHEMBL4819127, “Syntheses and antimicrobial activities of ogipeptin derivatives” (Bioorg Med Chem Lett, 2021)
